Measured values: patent publication US9955676B2, “Transgenic model for delay-type hypersensitivity (DTH) and use thereof” (Macau University of Science and Technology, priority 2014, dated 2018)

Experiments:
[1] = molecular target: T1, IKK-β C46A mutant (Homo sapiens, UniProt O14920, C46A); assay: IKK-β kinase assay (K-LISA IKKβ-Inhibitor Screening Kit) on cysteine mutants; type: biochemical; conditions: FIG. 6a
T1 construct: FLAG; made in house
T1 sequence (O14920 1-756 C46A): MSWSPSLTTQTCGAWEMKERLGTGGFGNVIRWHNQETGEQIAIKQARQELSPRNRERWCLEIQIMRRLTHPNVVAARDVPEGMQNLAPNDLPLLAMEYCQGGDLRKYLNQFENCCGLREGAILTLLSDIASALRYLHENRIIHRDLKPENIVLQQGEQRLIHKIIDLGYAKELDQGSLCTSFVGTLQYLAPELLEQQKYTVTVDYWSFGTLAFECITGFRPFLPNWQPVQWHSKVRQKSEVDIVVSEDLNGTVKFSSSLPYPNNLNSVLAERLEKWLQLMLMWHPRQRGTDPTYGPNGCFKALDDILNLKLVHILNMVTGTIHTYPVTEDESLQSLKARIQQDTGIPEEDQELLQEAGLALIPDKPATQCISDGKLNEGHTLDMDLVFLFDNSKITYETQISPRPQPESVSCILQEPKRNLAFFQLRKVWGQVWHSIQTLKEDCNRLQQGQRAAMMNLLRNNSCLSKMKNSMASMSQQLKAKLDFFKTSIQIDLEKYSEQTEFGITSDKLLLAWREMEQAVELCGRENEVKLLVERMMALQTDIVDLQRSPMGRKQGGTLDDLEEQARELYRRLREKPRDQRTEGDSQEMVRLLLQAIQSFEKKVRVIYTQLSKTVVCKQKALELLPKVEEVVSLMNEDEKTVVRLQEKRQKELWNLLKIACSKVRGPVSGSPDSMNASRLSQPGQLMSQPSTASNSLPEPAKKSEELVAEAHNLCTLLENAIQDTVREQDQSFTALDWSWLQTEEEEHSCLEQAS
Protocol: IKK-β kinase assay is performed using a K-LISA™ IKKβ-Inhibitor Screening Kit (Calbiochem).
To determine the specificity to which cysteine residue(s) on IKK-β for the inhibitory action of a well-known inhibitor, DMY, all other 15 single point mutation IKK-β constructs with cysteine (C) residues are replaced with alanine (A) by site-directed mutagenesis (FIG. 6a), except Cys-46.

[2] = tested on: IKK-β C46A mutant mice; assay: DNFB-induced delay-type hypersensitivity test with immunohistochemical staining, mutant mice; type: in vivo, mouse; conditions: homozygous IKK-β C46A mutant mice
Text: (§1) Delay-Type Hypersensitivity Test and Immunohistochemical Staining.
(§2) The in vivo anti-inflammatory effect of DMY on CD4^+ and CD8^+ lymphocytes is examined by administering this inhibitor to the mouse with delay-type hypersensitivity (DTH) based on the previously described method. The ear samples of DTH mice are fixed in 4% neutral-buffered formalin. Each sample is cut longitudinally into half and embedded in paraffin (Panreac), and then cut into 5 μm sections. Immunohistochemical staining is performed on slides.

[3] = tested on: IKK-β (wt) / NF-κB signaling; assay: Western blotting of TNF-α-stimulated IKK-β−/− MEFs transfected with IKK-β wild-type; type: cell-based, mouse; conditions: DMY pretreatment 60 min, FIG. 6c
Protocol: Western Blotting Analysis.
IKK-β^−/− deficient mouse embryonic fibroblasts (MEFs) are provided as a gift by Prof. Michael Karin (University of California, San Diego). IKK-β^−/− deficient MEFs transfected with IKK-β wild-type or mutant C46A constructs are pretreated with DMY at 37° C. for 60 min, and then the cells are stimulated with TNF-α and harvested for western blotting analysis. The expressions of IκBα, p-p65^ser536, FLAG-IKK-β and actin are detected with their specific antibodies.

[4] = tested on: IKK-β+/+ mice; assay: DNFB-induced delay-type hypersensitivity test with immunohistochemical staining, wild-type mice; type: in vivo, mouse; conditions: DNFB-induced DTH, FIG. 7
Text: as §1, §2

[5] = tested on: CIA rats; assay: Collagen-II induced arthritis (CIA) rat model; type: in vivo
Protocol: Experimental arthritis induced by collagen-II in rats. CIA is induced in female Wistar rats. Dexamethasone (DEX, 0.1 mg/kg), methotrexate (MTX, 3.75 mg/kg, twice per week) and indomethacin (Indo, 1 mg/kg) are used as reference drugs.

- kinase inhibitory effect (phosphorylation of IκBα) [1]: abrogates the kinase inhibitory effect
Structure (SMILES): O=C1c2c(O)cc(O)cc2O[C@H](c2cc(O)c(O)c(O)c2)[C@H]1O [DMY, dihydromyricetin]
- anti-inflammatory potency in DTH responses [2]: diminished anti-inflammatory potency
- TNF-α-induced phosphorylation of NF-κB p65 and degradation of IκBα [3]: suppression of TNF-α-induced phosphorylation of NF-κB p65 and degradation of IκBα
- number of CD8+ lymphocytes in ear sections [4]: gradually decreases
- NF-κB signaling in the knee synovial tissues ([5]; CIA rats, FIG. 8c): significantly suppress
- organ indexes ([5]; CIA rats, FIG. 8d): no adverse impairment
- body weight ([5]; CIA rats, compared to vehicle- and reference reagents-treated animals, FIG. 8e): prevent loss of body weight
- hind paw volumes ([5]; compared to vehicle-treated CIA rats, FIG. 8a): significantly decrease
- arthritic scores ([5]; compared to vehicle-treated CIA rats, FIG. 8b): significantly decrease
